Patent US20260000698A1 (priority 2022, published 2026)

Legend:
SARS-CoV-2 Nsp14 MTase [1] = biological target: T1, SARS-CoV-2 Nsp14 MTase (Severe acute respiratory syndrome coronavirus 2, UniProt P0DTD1); test: biochemical; type: biochemical
[2] = tested on: SARS-CoV-2 isolate USA-WA1/2020; conditions: for EC50: NA (not active): inhibition at 50 μM
A549/ACE2/TMPRSS2 cells = test: in vitro; conditions: for CC50: NT (nontoxic): cell viability at 50 μM; for CC50: A549/ACE2/TMPRSS2 cells; for cytotoxicity: human, 100 μM
Method: Percentage of infected cells was determined by dividing the number of infected cells by the total number of cells per well. The percentage of infected cells and total number of cells for each treatment was plotted into GraphPad prism (GraphPad Software; San Diego, CA, USA) to perform a non-linear regression analysis, generate infectious dose-response curves and to calculate EC50 and CC50 values.
Viability assays for the non-infected A549/ACE2/TMPRSS2 cells were performed using the 3-(4,5-dimethylthiazol-2-yl)-5-(3-carboxymethoxyphenyl)-2-(4-sulfophenyl)-2H-tetrazolium (MTS)-based tetrazolium reduction CellTiter 96 Aqueous Non-Radioactive cell proliferation assay (Promega G5430; Madison, WI) as described. Assays were conducted using parallel plates to those used in the immunofluorescence assay. Experimental details (cell line, number of cells seeded and incubation time) corresponded to those used in the immunofluorescence assay above. The data obtained were used to calculate the CC50 value using GraphPad Prism software.

[3] = tested on: SARS-CoV-2 isolate USA-WA1/2020; test: microbe, parasite or virus in culture; conditions: Severe acute respiratory syndrome coronavirus 2, A549-ACE2, 48 h
SARS-CoV-2 Nsp14 MTase [4] = biological target: T1, SARS-CoV-2 Nsp14 MTase; test: Nsp14 MTase assay detected with MTase-Glo methyltransferase assay kit; type: biochemical; conditions: for IC50: methylation reaction detected by MTase-Glo kit; for inhibition at 10 µM: read-out: MTase % inhibition at 10 μM
Method: Detection using MTase-Glo™ methyltransferase assay kits. The assay was run according to Promega MTase-Glo™ kit (V7601) instructions. […]. GpppA was purchased by New England Biolabs and used at a final concentration of 3 uM/reaction. […] […] Compounds, Nsp14, GpppA at MTase-Glo™ reagent were pre-incubated for 15 min at room temperature. The assay was started with addition of SAM at final concentration of 1 uM/reaction (negative control had no SAM). The assay plate was mixed well with a plate shaker after each addition. The reaction was incubated for 15 min at 30° C. MTase-Glo™ detection solution was added, and the plate was incubated 60 min at room temperature. Luminescence was read on an M5e spectrophotometer.

[5] = LC-MS/MS detection of SAH, read-out: MTase IC50

Nc1ncnc2c1ncn2[C@@H]1O[C@H](CNCc2ccc3ccccc3c2)[C@@H](O)[C@H]1O [Compound 1, (2R,3R,4S,5R)-2-(6-Amino-9H-purin-9-yl)-5-(((naphthalen-2-ylmethyl)amino)methyl)tetrahydrofuran-3,4-diol]
IC50 (SARS-CoV-2 Nsp14 MTase [1]; [5]): 9600 nM | EC50: NA (not active) [2]: NA^a (NA, not active, <15% inhibition at 50 μM.) | CC50: NT (nontoxic) (A549/ACE2/TMPRSS2 cells): NT^b (NT, nontoxic, >95% cell viability at 50 μM;)

Nc1ncnc2c1ncn2[C@@H]1O[C@H](CNC(=O)c2ccc3ccccc3c2)[C@@H](O)[C@H]1O [Compound 2, N-(((2R,3S,4R,5R)-5-(6-Amino-9H-purin-9-yl)-3,4-dihydroxytetrahydrofuran-2-yl)methyl)-2-naphthamide]
IC50 (SARS-CoV-2 Nsp14 MTase [1]; [5]): 2700 nM | EC50: NA (not active) [2]: NA^a (NA, not active, <15% inhibition at 50 μM.) | CC50: NT (nontoxic) (A549/ACE2/TMPRSS2 cells): NT^b (NT, nontoxic, >95% cell viability at 50 μM;)

Nc1ncnc2c1ncn2[C@@H]1O[C@H](CNS(=O)(=O)c2ccc3cccnc3c2)[C@@H](O)[C@H]1O [Compound 4, N-(((2R,3S,4R,5R)-5-(6-Amino-9H-purin-9-yl)-3,4-dihydroxytetrahydrofuran-2-yl)methyl)quinoline-7-sulfonamide]
MTase inhibitory activity (SARS-CoV-2 Nsp14 MTase [1]): comparable to that of compound 1 | IC50 (SARS-CoV-2 Nsp14 MTase [1]; [5]): 69 nM | EC50: NA (not active) [2]: NA^a (NA, not active, <15% inhibition at 50 μM.) | CC50: NT (nontoxic) (A549/ACE2/TMPRSS2 cells): NT^b (NT, nontoxic, >95% cell viability at 50 μM;)

Nc1ncnc2c1ncn2[C@@H]1O[C@H](CNS(=O)(=O)c2ccc3nc(Cl)ccc3c2)[C@@H](O)[C@H]1O [Compound 5, N-(((2R,3S,4R,5R)-5-(6-Amino-9H-purin-9-yl)-3,4-dihydroxytetrahydrofuran-2-yl)methyl)-2-chloroquinoline-6-sulfonamide]
IC50 (SARS-CoV-2 Nsp14 MTase [1]; [5]): 440 nM | fold reduction in inhibitory activity (SARS-CoV-2 Nsp14 MTase [1]; on replacing 2-naphthalene): 7 fold | EC50: NA (not active) [2]: NA^a (NA, not active, <15% inhibition at 50 μM.) | CC50: NT (nontoxic) (A549/ACE2/TMPRSS2 cells): NT^b (NT, nontoxic, >95% cell viability at 50 μM;)

CC(=O)Nc1ncnc2c1ncn2[C@@H]1O[C@H](CNS(=O)(=O)c2ccc3ccccc3c2)[C@@H](O)[C@H]1O [Compound 6, N-(9-((2R,3R,4S,5R)-3,4-Dihydroxy-5-((naphthalene-2-sulfonamido)methyl)tetrahydrofuran-2-yl)-9H-purin-6-yl)acetamide]
IC50 (SARS-CoV-2 Nsp14 MTase [1]; LC-MS/MS assay, read-out: IC50): 48 nM | EC50: NA (not active) [2]: NA^a (NA, not active, <15% inhibition at 50 μM.) | CC50 (A549/ACE2/TMPRSS2 cells): > 100000 nM

CC(=O)O[C@@H]1[C@H](OC(C)=O)[C@@H](CNS(=O)(=O)c2ccc3ccccc3c2)O[C@H]1n1cnc2c(N)ncnc21 [Compound 8, (2R,3R,4R,5R)-2-(6-Amino-9H-purin-9-yl)-5-((naphthalene-2-sulfonamido)methyl)tetrahydrofuran-3,4-diyl diacetate]
EC50 [3]: 53000 nM | CC50 (A549/ACE2/TMPRSS2 cells): > 100000 nM | cytotoxicity (A549/ACE2/TMPRSS2 cells): minimal cytotoxicity at 100 μM

CC(=O)Nc1ncnc2c1ncn2[C@@H]1O[C@H](CNS(=O)(=O)c2ccc3ccccc3c2)[C@@H](OC(C)=O)[C@H]1OC(C)=O [Compound 9, (2R,3R,4R,5R)-2-(6-Acetamido-9H-purin-9-yl)-5-((naphthalene-2-sulfonamido)methyl)tetrahydrofuran-3,4-diyl diacetate]
EC50 [3]: 61000 nM | CC50 (A549/ACE2/TMPRSS2 cells): > 100000 nM | cytotoxicity (A549/ACE2/TMPRSS2 cells): minimal cytotoxicity at 100 μM

CC(=O)O[C@@H]1[C@H](OC(C)=O)[C@@H](CNS(=O)(=O)c2ccc3ccccc3c2)O[C@H]1c1ccc2c(N)ncnn12 [Compound 11, (2S,3S,4R,5R)-2-(4-Aminopyrrolo[2,1-f][1,2,4]triazin-7-yl)-5-((naphthalene-2-sulfonamido)methyl)tetrahydrofuran-3,4-diyl diacetate]
EC50 [3]: 4300 nM | antiviral activity ([2]; A549 AT cells): less active | CC50 (A549/ACE2/TMPRSS2 cells): 63000 nM | cytotoxicity (A549/ACE2/TMPRSS2 cells): more toxic than 10

Nc1ncnn2c([C@@H]3O[C@H](CNS(=O)(=O)c4ccc5c(Cl)cccc5c4)[C@@H](O)[C@H]3O)ccc12 [Compound 39, N-(((2R,3S,4R,5S)-5-(4-aminopyrrolo[2,1-f][1,2,4]triazin-7-yl)-3,4-dihydroxytetrahydrofuran-2-yl)methyl)-5-chloronaphthalene-2-sulfonamide]
IC50 (SARS-CoV-2 Nsp14 MTase [4]): 49 nM

COc1ccc(S(=O)(=O)NC[C@H]2O[C@@H](c3ccc4c(N)ncnn34)[C@H](O)[C@@H]2O)cc1C#N [Compound 41, N-(((2R,3S,4R,5S)-5-(4-aminopyrrolo[2,1-f][1,2,4]triazin-7-yl)-3,4-dihydroxytetrahydrofuran-2-yl)methyl)-3-cyano-4-methoxybenzenesulfonamide]
inhibition at 10 µM (SARS-CoV-2 Nsp14 MTase [4]): 94%

COc1ccc(S(=O)(=O)NC[C@H]2O[C@@H](c3ccc4c(N)ncnn34)[C@H](O)[C@@H]2O)cc1[N+](=O)[O-] [Compound 43, N-(((2R,3S,4R,5S)-5-(4-aminopyrrolo[2,1-f][1,2,4]triazin-7-yl)-3,4-dihydroxytetrahydrofuran-2-yl)methyl)-4-methoxy-3-nitrobenzenesulfonamide]
inhibition at 10 µM (SARS-CoV-2 Nsp14 MTase [4]): 79%

Nc1ncnn2c([C@@H]3O[C@H](CNS(=O)(=O)c4cccc(-c5ccccc5)c4)[C@@H](O)[C@H]3O)ccc12 [Compound 45, N-(((2R,3S,4R,5S)-5-(4-Aminopyrrolo[2,1-f][1,2,4]triazin-7-yl)-3,4-dihydroxytetrahydrofuran-2-yl)methyl)-[1,1′-biphenyl]-3-sulfonamide]
inhibition at 10 µM (SARS-CoV-2 Nsp14 MTase [4]): 85%

Nc1ncnn2c([C@@H]3O[C@H](CNS(=O)(=O)c4ccc(-c5ccccc5)cc4)[C@@H](O)[C@H]3O)ccc12 [Compound 47, N-(((2R,3S,4R,5S)-5-(4-Aminopyrrolo[2,1-f][1,2,4]triazin-7-yl)-3,4-dihydroxytetrahydrofuran-2-yl)methyl)-[1,1′-biphenyl]-4-sulfonamide]
inhibition at 10 µM (SARS-CoV-2 Nsp14 MTase [4]): 85%

Nc1ncnn2c([C@@H]3O[C@H](CNS(=O)(=O)c4ccc5ccccc5c4)[C@@H](O)[C@H]3O)cc(F)c12 [Compound 51, N-(((2R,3S,4R,5S)-5-(4-Amino-5-fluoropyrrolo[2,1-f][1,2,4]triazin-7-yl)-3,4-dihydroxytetrahydrofuran-2-yl)methyl)naphthalene-2-sulfonamide]
IC50 (SARS-CoV-2 Nsp14 MTase [4]): 32 nM

CCN(C[C@H]1O[C@@H](c2ccc3c(N)ncnn23)[C@H](O)[C@@H]1O)S(=O)(=O)c1ccc2ccccc2c1 [Compound 53, N-(((2R,3S,4R,5S)-5-(4-Aminopyrrolo[2,1-f][1,2,4]triazin-7-yl)-3,4-dihydroxytetrahydrofuran-2-yl)methyl)-N-ethylnaphthalene-2-sulfonamide]
IC50 (SARS-CoV-2 Nsp14 MTase [4]): 156 nM

Nc1ncnc2c([C@@H]3O[C@H](CNS(=O)(=O)c4ccc5ccccc5c4)[C@@H](O)[C@H]3O)csc12 [Compound B12, N-(((2R,3S,4R,5S)-5-(4-Aminothieno[3,2-d]pyrimidin-7-yl)-3,4-dihydroxytetrahydrofuran-2-yl)methyl)naphthalene-2-sulfonamide]
inhibition at 10 µM (SARS-CoV-2 Nsp14 MTase [4]): 91%

Nc1ncnc2c1ccn2[C@@H]1O[C@H](CNS(=O)(=O)c2ccc3ccccc3c2)[C@@H](O)[C@H]1O [Compound C9, N-(((2R,3S,4R,5R)-5-(4-Amino-7H-pyrrolo[2,3-d]pyrimidin-7-yl)-3,4-dihydroxytetrahydrofuran-2-yl)methyl)naphthalene-2-sulfonamide]
IC50 (SARS-CoV-2 Nsp14 MTase [4]): 19 nM

COc1ccc(S(=O)(=O)NC[C@H]2O[C@@H](n3ccc4c(N)ncnc43)[C@H](O)[C@@H]2O)cc1C#N [Compound C11, N-(((2R,3S,4R,5R)-5-(4-Amino-7H-pyrrolo[2,3-d]pyrimidin-7-yl)-3,4-dihydroxytetrahydrofuran-2-yl)methyl)-3-cyano-4-methoxybenzenesulfonamide]
inhibition at 10 µM (SARS-CoV-2 Nsp14 MTase [4]): 98%

CCN(C[C@H]1O[C@@H](n2ccc3c(N)ncnc32)[C@H](O)[C@@H]1O)S(=O)(=O)c1ccc(OC)c(C#N)c1 [Compound C13, N-(((2R,3S,4R,5R)-5-(4-Amino-7H-pyrrolo[2,3-d]pyrimidin-7-yl)-3,4-dihydroxytetrahydrofuran-2-yl)methyl)-3-cyano-N-ethyl-4-methoxybenzenesulfonamide]
inhibition at 10 µM (SARS-CoV-2 Nsp14 MTase [4]): 100%

CCC(CC)COC(=O)[C@H](C)N[P@](=O)(OC[C@H]1O[C@@](C#N)(c2ccc3c(N)ncnn23)[C@H](O)[C@@H]1O)Oc1ccccc1 [remdesivir, reference compound]
EC50 [3]: 93 nM | CC50 (A549/ACE2/TMPRSS2 cells): 43000 nM

Nc1ncnc2c1ncn2[C@@H]1O[C@H](C[C@@H](N)CC[C@H](N)C(=O)O)[C@@H](O)[C@H]1O [sinefungin, reference compound]
EC50: NA (not active) [2]: NA^a (NA, not active, <15% inhibition at 50 μM.) | CC50: NT (nontoxic) (A549/ACE2/TMPRSS2 cells): NT^b (NT, nontoxic, >95% cell viability at 50 μM;)
